From patent publication US20220194997A1, “SUMO PEPTIDES FOR TREATING NEURODEGENERATIVE DISEASES” (The Chinese University of Hong Kong, priority 2019, published 2022)
One block for each compound: values may come before it. Where no end group is shown, it is not given here.

Legend:
α-synuclein [1] = biological target: T1, α-synuclein (Homo sapiens, UniProt P37840); assay: Fibrillation (Thioflavin T) assay of SDS-induced α-synuclein aggregation; type: biochemical
T1 construct: made in house; host or cells: Escherichia coli BL21(DE3), pET-28a (NcoI/XhoI)
Experimental: The reaction contained the mixture of 70 μM α-synuclein and different concentrations of SUMO1 variants, 40 μM Thioflavin T (ThT) (Sigma-Aldrich), 0.4 mM SDS in reaction buffer (20 mM HEPES, 150 mM NaCl, pH 7.4). Reactions were performed in quadruplicate in a black clear-bottomed 96-well plate (Nunc, Thermo Fisher Scientific) with a final volume of 150 μL. The plate was sealed with sealing membrane (Thermo Fisher Scientific) and loaded into an Infinite M1000 plate reader (Tecan), incubated at 37° C. without agitation. The fluorescence was detected at 30 min intervals, with excitation at 450 nm and with emission at 485 nm. Protein samples were analyzed after fibrillation assay using size-exclusion chromatography on a Superdex 200 GL 5/150 column (3 ml, GE Healthcare) in reaction buffer.
Sodium dodecyl sulfate (SDS) was added to mimic membrane environments and serve as nucleation scaffold to stimulate α-synuclein aggregation (Giehm et al., 2010).
Thioflavin T (ThT) assay was performed as previously described^5 with minor modifications. […] The potential pre-formed aggregates in α-synuclein were removed by centrifugation at 15,000 rpm for 15 min and filtering through a 0.2 μm filter before the experiments. Reactions were performed in a black clear-bottomed 96-well plate (Nunc, Thermo Fisher Scientific) sealed with clear adhesive sealing sheet (Thermo Fisher Scientific) to avoid evaporation and loaded into an Infinite® M1000 plate reader (Tecan), incubated at 37° C. for 7 days without agitation. The fluorescence was recorded at 485 nm with excitation wavelength of 450 nm at the interval of 30 min.

α-synuclein [2] = biological target: T1, α-synuclein; assay: Microscale thermophoresis (MST) binding
Experimental: The labelling reaction was performed according to the manufacturer's instructions. Unreacted dye was removed with the dye removal column supplied in the Protein Labelling Kit RED-NHS (NanoTemper Technologies) or desalting column (Bio-Rad). […] The labelled targets were adjusted to appropriate concentration for detection. The ligands were dissolved in reaction buffer and a series of 16 1:1 dilutions was prepared. For the measurement, each ligand dilution was mixed with one volume of labelled protein target. After 10 min incubation, the samples were loaded into standard or premium Monolith NT.115 Capillaries (NanoTemper Technologies). MST was measured using a Monolith NT.115 instrument (NanoTemper Technologies) at an ambient temperature of 25° C. Instrument parameters were adjusted to 20% LED power and medium MST power. Data of three independently pipetted measurements were analyzed (MO.Affinity Analysis software version 2.1.3, NanoTemper Technologies) using the signal from an MST-on time of 5 s.
Unreacted dye was removed with desalting column (2K MWCO, Bio-Rad). The purity was monitored by measuring the ratio of protein to dye after the clean-up procedure. […]

SH-SY5Y cells = assay: Cellular uptake of Alexa 488 labelled peptide, confocal microscopy; type: cell-based; settings: 1 h and 24 h, time course
Experimental: SH-SY5Y cells were planted on 35 mm glass bottom confocal dishes and incubated overnight. After co-incubation with Alexa 488 labelled R8-SUMO1(31-55), cells were fixed with 4% paraformaldehyde for 15 min at room temperature at different time points and visualized by Leica TCS SP8 confocal microscope with 63X oil immersion objective.

[3] = test system: α-synuclein (wild-type) transgenic Drosophila; assay: Climbing assay after larval feeding; type: in vivo; settings: larval feeding 60, 120 or 240 μM, pilot study
[4] = test system: α-synuclein-A30P transgenic Drosophila; assay: Climbing assay after larval feeding; type: in vivo; settings: larval feeding 60, 120 or 240 μM, pilot study
Source text: (§1) The following fly strains were adopted in this study: gmr-GAL4 (RRID: BDSC_1104), elav-GAL4 (RRID: BDSC_458), UAS-α-synuclein-A30P (RRID: BDSC_8147), and UAS-α-synuclein-A53T (RRID: BDSC_8148). All strains were obtained from the Bloomington Drosophila Stock Center. To obtain PD model flies, virgin flies carrying the driver gmr-GAL4 or elav-GAL4 on X chromosome were crossed to males from UAS-α-synuclein-A30P/UAS-α-synuclein-A53T stocks. The progeny of these crosses was maintained on standard cornmeal medium supplemented with dry yeast in 25° C. incubator.
(§2) Climbing assay was performed according to previously described^10. Briefly, a group of 10 flies from each condition were placed in individual plastic vial, and gently tapped to the bottom of the vail. The number of flies that could climb a height of 2 cm within 15 s was recorded. Each trial was repeated five times with 1 min recovery periods between each trials. Total 20 (10 males and 10 females) flies from each condition were tested for one genetic cross.

[5] = test system: α-synuclein-A53T transgenic Drosophila; assay: Climbing assay after larval feeding; type: in vivo; settings: larval feeding 60, 120 or 240 μM, pilot study
Source text: as §1, §2

[6] = equimolar ratio (1:1), 70 μM α-synuclein, 37° C., 7 days

- inhibition of α-synuclein aggregation (α-synuclein [1]; [6]): much weaker inhibition effect
- binding ability to α-synuclein compared with that of SUMO1(15-55) (α-synuclein [2]): around 1/40
Compound: CC[C@H](C)[C@H](NC(=O)[C@H](Cc1ccc(O)cc1)NC(=O)[C@H](CCC(=O)O)NC(=O)CNC(=O)[C@H](CCC(=O)O)NC(=O)[C@H](CCCCN)NC(=O)[C@H](CCCCN)NC(=O)[C@@H](N)CC(=O)O)C(=O)N[C@@H](CCCCN)C(=O)N[C@@H](CC(C)C)C(=O)N[C@@H](CCCCN)C(=O)N[C@H](C(=O)N[C@H](C(=O)NCC(=O)N[C@@H](CCC(N)=O)C(=O)N[C@@H](CC(=O)O)C(=O)N[C@@H](CO)C(=O)N[C@@H](CO)C(=O)N[C@@H](CCC(=O)O)C(=O)N[C@H](C(=O)N[C@@H](Cc1c[nH]cn1)C(=O)N[C@@H](Cc1ccccc1)C(=O)N[C@@H](CCCCN)C(=O)N[C@H](C(=O)N[C@@H](CCCCN)C(=O)N[C@@H](CCSC)C(=O)N[C@H](C(=O)N[C@H](C(=O)N[C@@H](Cc1c[nH]cn1)C(=O)N[C@@H](CCC(=O)O)C(=O)N[C@@H](CCCCN)C(=O)N[C@@H](CCCCN)C(=O)N[C@@H](CCCNC(=N)N)C(=O)N[C@@H](CCCCN)C(=O)N[C@@H](CCC(=O)O)C(=O)N[C@@H](CO)C(=O)N[C@@H](Cc1ccc(O)cc1)C(=O)N[C@@H](CS)C(=O)N[C@@H](CCC(N)=O)C(=O)N[C@@H](CCCNC(=N)N)C(=O)N[C@@H](CCC(N)=O)C(=O)O)[C@@H](C)O)[C@@H](C)O)C(C)C)[C@@H](C)CC)[C@@H](C)CC)C(C)C [SUMO1(15-55) (L44E, L47R)]

- inhibition of α-synuclein aggregation (α-synuclein [1]; [6]): not effective
Compound: SUMO1(20-40): SUMO1 derived peptide, residues 20-40 (EYIKLKVIGQDSSEIHFKVKM; UniProt P63165 20-40, looked up, fragment)

- inhibition of α-synuclein aggregation (α-synuclein [1]; [6]): suppressed
- delay of the initiation of the aggregation (α-synuclein [1]; half molar ratio): 2 days
Compound: SUMO2(16-51): residues 16-51 of human SUMO2, identical sequence to SUMO3(15-50) (DHINLKVAGQDGSVVQFKIKRHTPLSKLMKAYCERQ; UniProt P61956 16-51, looked up, fragment)

Further lines, the compound ahead of its results:

Compound: His-SUMO1(31-55): SUMO1(31-55) with an N-terminal 10×His tag ({10xHis tag}-SSEIHFKVKMTTHLKKLKESYCQRQ; UniProt P63165 31-55, looked up, fragment)
- inhibition of α-synuclein aggregation (α-synuclein [1]; ratio of 1:5 or 1:10 α-synuclein: SUMO peptide inhibitor): partial inhibition

Compound: RRRRRRRRSSEIHFKVKMTTHLKKLKESYCQRQ [R8-SUMO1(31-55)]
- internalization into cells (SH-SY5Y cells): internalization into SH-SY5Y cells at a high efficiency

Compound: SUMO1(31-55): residues 31-55 of human SUMO1, a beta sheet followed by an alpha-helix (SSEIHFKVKMTTHLKKLKESYCQRQ)
- locomotor dysfunction (climbing) [3]: improved the locomotor dysfunction
- locomotor dysfunction (climbing) [4]: improved the locomotor dysfunction
- locomotor dysfunction (climbing) [5]: improved the locomotor dysfunction
